Where “and” joins values, the source holds several entries; their conditions need not be identical. Equal entries are not always repeated. Inconclusive results are not listed.
Test system: BDF1 mice, colon carcinoma 38 sc, T/C %
Assay: NCI In Vivo Anticancer Drug Screen. Data for tumor model Colon Carcinoma 38 (subcutaneous) in B6D2F1 (BDF1) mice
Details: endpoint: median tumor weight (est.), higher = larger tumour
Method in brief: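 Transplantable tumor in mice; compound-treated vs vehicle-dosed controls. Measured survival or tumor size; value = T ÷ C.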

[1] = dose: 50.0 mg/kg/injection, schedule: Q07DX002 (ip), vehicle: saline with Tween-80
[2] = dose: 50.0 mg/kg/injection, schedule: Q07DX002 (ip), vehicle: saline
[3] = dose: 100.0 mg/kg/injection, schedule: Q07DX002 (ip), vehicle: saline with Tween-80
[4] = dose: 100.0 mg/kg/injection, schedule: Q07DX002 (ip), vehicle: saline
[5] = dose: 200.0 mg/kg/injection, schedule: Q07DX002 (ip), vehicle: saline with Tween-80
[6] = dose: 200.0 mg/kg/injection, schedule: Q07DX002 (ip), vehicle: saline
[7] = dose: 400.0 mg/kg/injection, schedule: Q07DX002 (ip), vehicle: saline with Tween-80
[8] = dose: 100.0 mg/kg/injection, schedule: Q07DX002 (ip), vehicle: Klucel (hydroxypropylcellulose) (HPC)
[9] = dose: 200.0 mg/kg/injection, schedule: Q07DX002 (ip), vehicle: Klucel (hydroxypropylcellulose) (HPC)
[10] = dose: 400.0 mg/kg/injection, schedule: Q07DX002 (ip), vehicle: Klucel (hydroxypropylcellulose) (HPC)
[11] = dose: 12.5 mg/kg/injection, schedule: Q07DX002 (ip), vehicle: saline
[12] = dose: 25.0 mg/kg/injection, schedule: Q07DX002 (ip), vehicle: saline with Tween-80
[13] = dose: 25.0 mg/kg/injection, schedule: Q07DX002 (ip), vehicle: saline

## O=c1[nH]c(=O)n(C2CC(O)C(CO)O2)cc1C(F)(F)F (stereo unspecified)
dose: 10.0 mg/kg/injection, schedule: Q07DX002 (ip), vehicle: saline
  T/C: 83 % of control
dose: 20.0 mg/kg/injection, schedule: Q07DX002 (ip), vehicle: saline
  T/C: 77 % of control
[1]
  T/C: 100 % of control
[2]
  T/C: 114 % of control
[3]
  T/C: 117 % of control
[4]
  T/C: 84 % of control
dose: 160.0 mg/kg/injection, schedule: Q07DX002 (ip), vehicle: saline
  T/C: 118 % of control
[5]
  T/C: 101 % of control
[6]
  T/C: 95 % of control
dose: 320.0 mg/kg/injection, schedule: Q07DX002 (ip), vehicle: saline
  T/C: 156 % of control
[7]
  T/C: 94 % of control
dose: 800.0 mg/kg/injection, schedule: Q07DX002 (ip), vehicle: saline with Tween-80
  T/C: 105 % of control
dose: 800.0 mg/kg/injection, schedule: Q07DX002 (ip), vehicle: saline
  T/C: 90 % of control
dose: 1600.0 mg/kg/injection, schedule: Q07DX002 (ip), vehicle: saline with Tween-80
  T/C: 108 % of control
dose: 1600.0 mg/kg/injection, schedule: Q07DX002 (ip), vehicle: saline
  T/C: 41 % of control

## C[C@]12CCC(=O)C=C1CC[C@@H]1[C@@H]2C(=O)C[C@@]2(C)[C@H]1CC[C@]2(O)C(=O)CO
dose: 40.0 mg/kg/injection, schedule: Q07DX003 (ip), vehicle: Klucel (hydroxypropylcellulose) (HPC)
  T/C: 74 % of control
dose: 50.0 mg/kg/injection, schedule: Q07DX002 (ip), vehicle: Klucel (hydroxypropylcellulose) (HPC)
  T/C: 117 % of control
dose: 80.0 mg/kg/injection, schedule: Q07DX003 (ip), vehicle: Klucel (hydroxypropylcellulose) (HPC)
  T/C: 88 % of control
[8]
  T/C: 69 % of control
dose: 160.0 mg/kg/injection, schedule: Q07DX003 (ip), vehicle: Klucel (hydroxypropylcellulose) (HPC)
  T/C: 66 % of control
[9]
  T/C: 45 % of control
dose: 320.0 mg/kg/injection, schedule: Q07DX003 (ip), vehicle: Klucel (hydroxypropylcellulose) (HPC)
  T/C: 74 % of control
[10]
  T/C: 53 % of control
dose: 640.0 mg/kg/injection, schedule: Q07DX003 (ip), vehicle: Klucel (hydroxypropylcellulose) (HPC)
  T/C: 47 % of control
dose: 800.0 mg/kg/injection, schedule: Q07DX002 (ip), vehicle: Klucel (hydroxypropylcellulose) (HPC)
  T/C: 66 % of control
dose: 1200.0 mg/kg/injection, schedule: Q07DX002 (ip), vehicle: Klucel (hydroxypropylcellulose) (HPC)
  T/C: 67 % of control

## O=c1n[n+]([O-])ccn1C1OC(CO)C(O)C1O (stereo unspecified)
[4]
  T/C: 160 % of control
[6]
  T/C: 117 % of control
dose: 600.0 mg/kg/injection, schedule: Q07DX002 (ip), vehicle: saline
  T/C: 73 % of control

## O=C1C(O)=C(c2ccccc2)C(=O)C(O)=C1c1ccccc1
dose: 12.5 mg/kg/injection, schedule: Q07DX002 (ip), vehicle: saline with Tween-80
  T/C: 103 % of control
[11]
  T/C: 89 % of control
[12]
  T/C: 111 % of control
[13]
  T/C: 55 % of control
[1]
  T/C: 86 % of control
[2]
  T/C: 106 % of control
[4]
  T/C: 105 % of control
[6]
  T/C: 102 % of control

## N=C(N)CCNC(=O)C1CCC(N)=N1 (stereo unspecified)
dose: 3.38 mg/kg/injection, schedule: Q07DX002 (ip), vehicle: saline
  T/C: 97 % of control
dose: 6.75 mg/kg/injection, schedule: Q07DX002 (ip), vehicle: saline
  T/C: 115 % of control
dose: 13.5 mg/kg/injection, schedule: Q07DX002 (ip), vehicle: saline
  T/C: 120 % of control
dose: 27.0 mg/kg/injection, schedule: Q07DX002 (ip), vehicle: saline
  T/C: 91 % of control

## C[C@H](N)C(=O)N[C@@H]1[C@H]2C(=C(O)C[C@@H](O)[C@@H]2O)C(=O)O[C@]1(C)C(Cl)Cl
dose: 0.37 mg/kg/injection, schedule: Q07DX002 (ip), vehicle: Klucel (hydroxypropylcellulose) (HPC)
  T/C: 97 % of control
dose: 0.38 mg/kg/injection, schedule: Q07DX002 (ip), vehicle: Klucel (hydroxypropylcellulose) (HPC)
  T/C: 75 % of control
dose: 3.0 mg/kg/injection, schedule: Q07DX002 (ip), vehicle: Klucel (hydroxypropylcellulose) (HPC)
  T/C: 53 % of control and 59 % of control
dose: 6.0 mg/kg/injection, schedule: Q07DX002 (ip), vehicle: Klucel (hydroxypropylcellulose) (HPC)
  T/C: 30 % of control and 40 % of control

## CCN(Cc1ccc(Cl)c(Cl)c1)c1ccc2nc(N)nc(N)c2c1C
dose: 6.25 mg/kg/injection, schedule: Q07DX002 (ip), vehicle: distilled water + Tween-80
  T/C: 165 % of control
dose: 12.5 mg/kg/injection, schedule: Q07DX002 (ip), vehicle: distilled water + Tween-80
  T/C: 206 % of control
dose: 100.0 mg/kg/injection, schedule: Q07DX002 (ip), vehicle: distilled water + Tween-80
  T/C: 46 % of control

## CCN(CC)CCOC(=O)/C=C\c1cccc2c(=O)cc(-c3ccccc3)oc12
[8]
  T/C: 102 % of control
[9]
  T/C: 65 % of control
[10]
  T/C: 52 % of control

## OCCN1CCN(CCCN2c3ccccc3Sc3ccc(C(F)(F)F)cc32)CC1
dose: 3.12 mg/kg/injection, schedule: Q07DX002 (ip), vehicle: saline
  T/C: 115 % of control
dose: 6.25 mg/kg/injection, schedule: Q07DX002 (ip), vehicle: saline
  T/C: 91 % of control
[11]
  T/C: 61 % of control
[13]
  T/C: 67 % of control
[2]
  T/C: 56 % of control

## CCOC(=O)Nc1cc2c(c(N)n1)N=C(c1ccccc1)CN2
dose: 2.5 mg/kg/injection, schedule: Q07DX002 (ip), vehicle: saline with Tween-80
  T/C: 66 % of control
dose: 5.0 mg/kg/injection, schedule: Q07DX002 (ip), vehicle: saline with Tween-80
  T/C: 73 % of control
dose: 10.0 mg/kg/injection, schedule: Q07DX002 (ip), vehicle: saline with Tween-80
  T/C: 97 % of control

## Cc1cc(NCCCCCCCNc2cc(C)nc3cc(N)ccc23)c2ccc(N)cc2n1
dose: 1.56 mg/kg/injection, schedule: Q07DX002 (ip), vehicle: saline with Tween-80
  T/C: 78 % of control

## CN=S(=O)(OCCCCCOS(=O)(=NC)c1ccc(C)cc1)c1ccc(C)cc1 (stereo unspecified)
[1]
  T/C: 71 % of control and 94 % of control
[3]
  T/C: 65 % of control and 89 % of control
[5]
  T/C: 96 % of control
[7]
  T/C: 61 % of control

## C=C(C)C(=O)OC1C/C(CO)=C\C(O)C/C(C)=C/C2OC(=O)C(=C)C21 (stereo unspecified)
dose: 2.5 mg/kg/injection, schedule: Q07DX002 (ip), vehicle: saline + alcohol
  T/C: 105 % of control
dose: 5.0 mg/kg/injection, schedule: Q07DX002 (ip), vehicle: saline + alcohol
  T/C: 117 % of control
dose: 20.0 mg/kg/injection, schedule: Q07DX002 (ip), vehicle: saline + alcohol
  T/C: 120 % of control
dose: 40.0 mg/kg/injection, schedule: Q07DX002 (ip), vehicle: saline + alcohol
  T/C: 119 % of control

## CS(C)=O
dose: 1.5 grams/kg/injection, schedule: Q07DX003 (ip), vehicle: saline
  T/C: 86 % of control
dose: 6.0 grams/kg/injection, schedule: Q07DX003 (ip), vehicle: saline
  T/C: 83 % of control and 103 % of control
dose: 12.0 grams/kg/injection, schedule: Q07DX003 (ip), vehicle: saline
  T/C: 171 % of control

## COc1cc2c[n+](C)c3c4cc5c(cc4ccc3c2cc1OC)OCO5
dose: 20.0 mg/kg/injection, schedule: Q07DX003 (ip), vehicle: saline with Tween-80
  T/C: 110 % of control
dose: 40.0 mg/kg/injection, schedule: Q07DX003 (ip), vehicle: saline with Tween-80
  T/C: 97 % of control

## COC1C(/C=C/C(C)=O)OC2OC(C)(C)OC21 (stereo unspecified)
[4]
  T/C: 114 % of control and 98 % of control

## O=C(Nc1ccccc1C(=O)O)c1cc([N+](=O)[O-])cc([N+](=O)[O-])c1
[12]
  T/C: 110 % of control and 88 % of control
[1]
  T/C: 78 % of control and 85 % of control
[3]
  T/C: 69 % of control
[5]
  T/C: 83 % of control and 86 % of control

## CCOC(=O)C(N)CSC(=O)NC (stereo unspecified)
dose: 125.0 mg/kg/injection, schedule: Q07DX002 (ip), vehicle: saline
  T/C: 83 % of control
dose: 250.0 mg/kg/injection, schedule: Q07DX002 (ip), vehicle: saline
  T/C: 110 % of control
dose: 500.0 mg/kg/injection, schedule: Q07DX002 (ip), vehicle: saline
  T/C: 81 % of control

## CN(C)CCCNc1c2ccccc2nc2cccc([N+](=O)[O-])c12
dose: 0.03 mg/kg/injection, schedule: Q07DX002 (ip), vehicle: saline
  T/C: 112 % of control and 104 % of control
dose: 0.06 mg/kg/injection, schedule: Q07DX002 (ip), vehicle: saline
  T/C: 116 % of control
dose: 0.06 mg/kg/injection, schedule: Q07DX003 (ip), vehicle: saline
  T/C: 93 % of control
dose: 0.12 mg/kg/injection, schedule: Q07DX003 (ip), vehicle: saline
  T/C: 98 % of control
dose: 0.25 mg/kg/injection, schedule: Q07DX003 (ip), vehicle: saline
  T/C: 101 % of control
